How the values were obtained:
[1] = target: T1, Receptor-interacting serine/threonine-protein kinase 1 (Homo sapiens, UniProt Q13546); assay: Inhibition of RIPK1 (unknown origin) in presence of ATP by kinaseProfiler assay
T1 sequence (Q13546 whole entry): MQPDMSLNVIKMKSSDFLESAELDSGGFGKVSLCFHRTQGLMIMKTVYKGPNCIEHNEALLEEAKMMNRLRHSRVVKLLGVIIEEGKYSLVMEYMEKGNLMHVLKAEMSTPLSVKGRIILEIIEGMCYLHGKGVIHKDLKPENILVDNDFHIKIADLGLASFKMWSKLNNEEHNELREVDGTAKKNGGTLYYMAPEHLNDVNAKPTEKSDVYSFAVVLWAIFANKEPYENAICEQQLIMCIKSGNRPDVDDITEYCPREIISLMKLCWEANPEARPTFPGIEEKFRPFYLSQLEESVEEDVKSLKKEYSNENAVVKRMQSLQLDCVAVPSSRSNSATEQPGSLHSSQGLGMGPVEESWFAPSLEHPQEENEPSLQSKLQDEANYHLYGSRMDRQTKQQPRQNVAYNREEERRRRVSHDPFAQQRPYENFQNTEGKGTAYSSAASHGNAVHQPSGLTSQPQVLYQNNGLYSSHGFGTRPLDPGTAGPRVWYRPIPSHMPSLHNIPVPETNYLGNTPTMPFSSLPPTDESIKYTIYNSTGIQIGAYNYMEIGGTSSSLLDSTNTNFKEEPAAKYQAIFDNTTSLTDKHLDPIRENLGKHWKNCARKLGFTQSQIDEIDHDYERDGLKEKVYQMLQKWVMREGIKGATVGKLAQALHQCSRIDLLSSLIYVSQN

[2] = system: L929; assay: Anti-necroptosis activity against TSZ-induced mouse L929 cells; type: functional, cell-based
[3] = system: U-937; assay: Anti-necroptosis activity against TSZ-induced human U-937 cells; type: functional, cell-based
[4] = system: HT-29; assay: Anti-necroptosis activity against TSZ-induced human HT-29 cells; type: functional, cell-based
[5] = Metabolic stability in cryopreserved human liver microsome assessed as half life; type: ADME; conditions: cryopreserved liver microsomes

Row | SMILES | IC50 [1] | half-life [5] | EC50 [2] | EC50 [3] | EC50 [4]
1 | CCn1nc(-c2ccc3c(c2)CCN3C(=O)c2cccc(OC(F)(F)F)c2)c2c(N)n[nH]c(=O)c21 | > 1000 nM |  | > 1000 nM | > 1000 nM | > 1000 nM
2 | CC(C)(C)c1ccc(Cn2nc(-c3ccc4c(c3)CCN4C(=O)Cc3cccc(OC(F)(F)F)c3)c3c(N)n[nH]c(=O)c32)cc1 | > 1000 nM |  | 659 nM | > 1000 nM | > 1000 nM
3 | Nc1n[nH]c(=O)c2c1c(-c1ccc3c(c1)CCN3C(=O)Cc1cccc(OC(F)(F)F)c1)nn2Cc1ccc(F)cc1 | 290 nM |  | 30.2 nM | 112 nM | 257 nM
4 | CCn1nc(-c2ccc3c(c2)CCN3C(C)=O)c2c(N)n[nH]c(=O)c21 | > 1000 nM |  |  |  | 
5 | CCn1nc(-c2ccc3c(c2)CCN3C(=O)Cc2cccc(F)c2)c2c(N)n[nH]c(=O)c21 | > 1000 nM |  | 45.6 nM | 722 nM | 597 nM
6 | CCn1nc(-c2ccc3c(c2)CCN3C(=O)CC2CCCCC2)c2c(N)n[nH]c(=O)c21 | > 1000 nM |  | 64.5 nM | 879 nM | 891 nM
7 | CCn1nc(-c2ccc3c(c2)CCN3C(=O)Cc2ccc3c(c2)OCO3)c2c(N)n[nH]c(=O)c21 | 915 nM |  | 114 nM | 703 nM | 562 nM
8 | CCn1nc(-c2ccc3c(c2)CCN3C(=O)Cc2cccc(F)c2F)c2c(N)n[nH]c(=O)c21 | > 1000 nM |  | 123 nM | 946 nM | 579 nM
9 | CCn1nc(-c2ccc3c(c2)CCN3C(=O)Cc2cccc(OC)c2)c2c(N)n[nH]c(=O)c21 | > 1000 nM |  |  |  | 
10 | Nc1n[nH]c(=O)c2c1c(-c1ccc3c(c1)CCN3C(=O)Cc1cccc(OC(F)(F)F)c1)nn2CCN1CCCC1 | 512 nM |  | 54.4 nM | 173 nM | 63 nM
11 | CCn1nc(-c2ccc3c(c2)CCN3Cc2cccc(OC(F)(F)F)c2)c2c(N)n[nH]c(=O)c21 | > 1000 nM |  | 451 nM | 990 nM | > 1000 nM
12 | Nc1n[nH]c(=O)c2c1c(-c1ccc3c(c1)CCN3C(=O)Cc1cccc(OC(F)(F)F)c1)nn2CCC1CCCC1 | > 1000 nM |  | 7.61 nM | 60.1 nM | 134 nM
13 | CCn1nc(-c2ccc3c(c2)CCN3C(=O)C2(c3ccccc3)CC2)c2c(N)n[nH]c(=O)c21 | > 1000 nM |  | > 1000 nM | > 1000 nM | > 1000 nM
14 | Nc1n[nH]c(=O)c2c1c(-c1ccc3c(c1)CCN3C(=O)Cc1cccc(OC(F)(F)F)c1)nn2CC1CCCC1 | 95.9 nM | 49.9 min | 3.95 nM | 12.7 nM | 15.7 nM
15 | CCn1nc(-c2ccc3c(c2)CCN3C(=O)Cc2ccccc2)c2c(N)n[nH]c(=O)c21 | > 1000 nM |  | 142 nM | 1020 nM | 546 nM
16 | Nc1n[nH]c(=O)c2c1c(-c1ccc3c(c1)CCN3C(=O)Cc1cccc(OC(F)(F)F)c1)nn2CCC1CNC1 | > 1000 nM | 100 min | 366 nM | > 1000 nM | > 1000 nM
17 | CCn1nc(-c2ccc3c(c2)CCN3C(=O)Cc2cc(F)cc(C(F)(F)F)c2)c2c(N)n[nH]c(=O)c21 | 475 nM |  | 12.8 nM | 283 nM | 331 nM
18 | CCn1nc(-c2ccc3c(c2)CCN3C(=O)Cc2ccc(Oc3ccccc3)cc2)c2c(N)n[nH]c(=O)c21 | 941 nM |  | 311 nM | 812 nM | 905 nM
19 | CCn1nc(-c2ccc3c(c2)CCN3C(=O)CCc2cccc(C(F)(F)F)c2)c2c(N)n[nH]c(=O)c21 | 111 nM |  | 4.71 nM | 33 nM | 19.3 nM
20 | CCn1nc(-c2ccc3c(c2)CCN3C(=O)Cc2ccc(OC(F)(F)F)cc2)c2c(N)n[nH]c(=O)c21 | 177 nM |  | 726 nM | 638 nM | > 1000 nM
21 | CCn1nc(-c2ccc3c(c2)CCN3C(=O)Cc2cccc(C(F)(F)F)c2)c2c(N)n[nH]c(=O)c21 | 135 nM |  | 1.75 nM | 1.38 nM | 11.3 nM
22 | CCn1nc(-c2ccc3c(c2)CCN3C(=O)[C@H](C)c2ccccc2)c2c(N)n[nH]c(=O)c21 | > 1000 nM |  | > 1000 nM | > 1000 nM | > 1000 nM
23 | CCn1nc(-c2ccc3c(c2)CCN3C(=O)CCc2ccccc2)c2c(N)n[nH]c(=O)c21 | 191 nM |  | 42.1 nM | 232 nM | 149 nM
24 | NC(=O)c1cccc(-c2ccc3c(c2)CCN3C(=O)Cc2cccc(OC(F)(F)F)c2)c1 | 102 nM |  |  |  | 
25 | Nc1n[nH]c(=O)c2c1c(-c1ccc3c(c1)CCN3C(=O)Cc1cccc(OC(F)(F)F)c1)nn2CCC1CCCCC1 | > 1000 nM |  | 16.2 nM | 103 nM | 246 nM

Second part, led by results:

Row | IC50 [1] | half-life [5] | SMILES | EC50 [2] | EC50 [3] | EC50 [4]
26 | 112 nM |  | CCc1nc(-c2ccc3c(c2)CCN3C(=O)Cc2cccc(OC(F)(F)F)c2)c2c(N)nccn12 |  |  | 
27 | 98.7 nM | 26.4 min | CC1(Cn2nc(-c3ccc4c(c3)CCN4C(=O)Cc3cccc(OC(F)(F)F)c3)c3c(N)n[nH]c(=O)c32)CC1 | 13.2 nM | 10.2 nM | 37.5 nM
28 | 64.3 nM | 26.6 min | CC(C)=CCn1nc(-c2ccc3c(c2)CCN3C(=O)Cc2cccc(OC(F)(F)F)c2)c2c(N)n[nH]c(=O)c21 | 1.38 nM | 22.7 nM | 11.3 nM
29 | > 1000 nM |  | Nc1nc2cccc(-c3ccc4c(c3)CCN4C(=O)Cc3cccc(OC(F)(F)F)c3)n2n1 |  |  | 
30 | 79.8 nM | 13.2 min | CC1(Cn2nc(-c3ccc4c(c3)CCN4C(=O)Cc3cccc(OC(F)(F)F)c3)c3c(N)n[nH]c(=O)c32)COC1 | 1.85 nM | 3.9 nM | 5.57 nM
31 | 66.1 nM | 26.8 min | CC(C)n1nc(-c2ccc3c(c2)CCN3C(=O)Cc2cccc(OC(F)(F)F)c2)c2c(N)n[nH]c(=O)c21 | 1.47 nM | 17.3 nM | 7.73 nM
32 | 73.7 nM | 19.9 min | Nc1n[nH]c(=O)c2c1c(-c1ccc3c(c1)CCN3C(=O)Cc1cccc(OC(F)(F)F)c1)nn2CC1COC1 | 5.89 nM | 5.09 nM | 15.1 nM
33 | 44.7 nM | 19.6 min | CC(C)Cn1cc(-c2ccc3c(c2)CCN3C(=O)Cc2cccc(OC(F)(F)F)c2)c2c(N)n[nH]c(=O)c21 | 8.8 nM | 1.84 nM | 1.61 nM
34 | 81.6 nM | 16.5 min | CCC1(Cn2nc(-c3ccc4c(c3)CCN4C(=O)Cc3cccc(OC(F)(F)F)c3)c3c(N)n[nH]c(=O)c32)COC1 | 6.67 nM | 4.64 nM | 18.4 nM
35 | 149 nM | 28.2 min | Nc1n[nH]c(=O)c2c1c(-c1ccc3c(c1)CCN3C(=O)Cc1cccc(OC(F)(F)F)c1)nn2Cc1ccccc1 | 14.3 nM | 117 nM | 108 nM
36 | 68.4 nM |  | Nc1n[nH]c(=O)c2c1c(-c1ccc3c(c1)CCN3C(=O)Cc1cccc(OC(F)(F)F)c1)nn2CC1CCC1 | 1.35 nM | 1.87 nM | 34 nM
37 | 105 nM | 18.3 min | CCCCn1nc(-c2ccc3c(c2)CCN3C(=O)Cc2cccc(OC(F)(F)F)c2)c2c(N)n[nH]c(=O)c21 | 1.2 nM | 15.5 nM | 8.23 nM
38 | 140 nM |  | Cn1nc(-c2ccc3c(c2)CCN3C(=O)Cc2cccc(OC(F)(F)F)c2)c2c(N)n[nH]c(=O)c21 | 3.4 nM | 37.1 nM | 21.4 nM
39 | 133 nM | 18.1 min | CC(C)Cn1nc(-c2ccc3c(c2)CCN3C(=O)Cc2cccc(OC(F)(F)F)c2)c2c(N)n[nH]c(=O)c21 | 1.36 nM | 9.75 nM | 6.19 nM
40 | > 1000 nM |  | NC(=O)c1cc(-c2ccc3c(c2)CCN3C(=O)Cc2cccc(OC(F)(F)F)c2)ccc1N |  |  | 
41 | > 1000 nM |  | CCn1cc(-c2ccc3c(c2)CCN3C(=O)Cc2cccc(OC(F)(F)F)c2)c2ncnc(N)c21 |  |  | 
42 | 97.6 nM |  | CCn1nc(-c2ccc3c(c2)CCN3C(=O)CCc2cccc(OC(F)(F)F)c2)c2c(N)n[nH]c(=O)c21 | 20.3 nM | 4.82 nM | 4.62 nM
43 | 70.3 nM |  | Nc1n[nH]c(=O)c2c1c(-c1ccc3c(c1)CCN3C(=O)Cc1cccc(OC(F)(F)F)c1)nn2CCC1CC1 | 3.67 nM | 4.04 nM | 18.2 nM
44 | 114 nM |  | CC(C)CCn1nc(-c2ccc3c(c2)CCN3C(=O)Cc2cccc(OC(F)(F)F)c2)c2c(N)n[nH]c(=O)c21 | 6.36 nM | 18.5 nM | 8.24 nM
45 | > 1000 nM |  | CCNc1ncnc(N)c1-c1ccc2c(c1)CCN2C(=O)Cc1cccc(OC(F)(F)F)c1 |  |  | 
46 | > 1000 nM |  | CCn1cc(-c2ccc3c(c2)CCN3C(=O)Cc2cccc(OC(F)(F)F)c2)c2c(=O)[nH]cnc21 |  |  | 
47 | 157 nM |  | NC(=O)c1cncc(-c2ccc3c(c2)CCN3C(=O)Cc2cccc(OC(F)(F)F)c2)c1 |  |  | 
